# Source: ChEMBL document CHEMBL1201862, “PubChem BioAssay data set” (2004)
# Calls of active or inactive are those of the source.
# Key:
# [1] = Luminescence Cell-Based Dose Retest to Confirm Inhibitors of Cancer Stem Cells. [Related pubchem assays (depositor defined):AID2717, AID2721]; format: functional, Homo sapiens; settings: Homo sapiens
# [2] = target: Cytochrome P450 2C19 (Homo sapiens, UniProt P33261); experiment: Cytochrome panel assay with activity outcomes. Panel member name: p450-cyp2c19 Compounds with AC50 equal or less than 10 uM are considered active; format: functional
# [3] = target: T1, Replicative DNA helicase DnaB (Mycobacterium tuberculosis, UniProt P9WMR3); experiment: DnaB intein splicing inhibitors, dose response, biochemical, cell-free fluorescence (AID 449749); format: functional
# T1 sequence (P9WMR3 whole entry): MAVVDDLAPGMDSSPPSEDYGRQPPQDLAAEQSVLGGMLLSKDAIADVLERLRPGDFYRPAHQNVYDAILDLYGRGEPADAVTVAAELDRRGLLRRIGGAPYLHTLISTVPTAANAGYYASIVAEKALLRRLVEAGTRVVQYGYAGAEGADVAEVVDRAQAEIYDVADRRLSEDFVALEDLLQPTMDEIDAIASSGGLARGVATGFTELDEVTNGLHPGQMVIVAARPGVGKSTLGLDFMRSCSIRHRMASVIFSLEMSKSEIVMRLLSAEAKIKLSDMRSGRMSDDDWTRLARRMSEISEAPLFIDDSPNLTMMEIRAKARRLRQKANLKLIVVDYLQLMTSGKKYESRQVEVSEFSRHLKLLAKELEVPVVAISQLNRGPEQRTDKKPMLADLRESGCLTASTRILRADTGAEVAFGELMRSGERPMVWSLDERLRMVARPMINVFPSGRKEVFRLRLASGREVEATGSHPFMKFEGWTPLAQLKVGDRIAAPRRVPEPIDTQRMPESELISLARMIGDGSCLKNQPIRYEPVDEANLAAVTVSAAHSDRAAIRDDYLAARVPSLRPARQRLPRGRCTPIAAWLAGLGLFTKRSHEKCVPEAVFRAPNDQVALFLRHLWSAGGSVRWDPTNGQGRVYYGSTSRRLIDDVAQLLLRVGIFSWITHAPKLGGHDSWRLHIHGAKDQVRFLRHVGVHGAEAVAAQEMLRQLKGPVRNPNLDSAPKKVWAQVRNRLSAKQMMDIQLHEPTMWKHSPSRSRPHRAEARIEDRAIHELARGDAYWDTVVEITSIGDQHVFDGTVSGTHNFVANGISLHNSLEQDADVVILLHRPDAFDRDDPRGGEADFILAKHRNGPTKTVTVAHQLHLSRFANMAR
# [4] = target: T2, Protein RecA (Mycobacterium tuberculosis, UniProt P9WHJ3); experiment: Fluorescence Cell-Free Homogeneous Dose Retest to Identify Inhibitors of RecA-Intein Splicing Activity. [Related pubchem assays (depositor defined):AID2097, AID2223, AID489010, AID492950]; format: functional
# T2 sequence (P9WHJ3 whole entry): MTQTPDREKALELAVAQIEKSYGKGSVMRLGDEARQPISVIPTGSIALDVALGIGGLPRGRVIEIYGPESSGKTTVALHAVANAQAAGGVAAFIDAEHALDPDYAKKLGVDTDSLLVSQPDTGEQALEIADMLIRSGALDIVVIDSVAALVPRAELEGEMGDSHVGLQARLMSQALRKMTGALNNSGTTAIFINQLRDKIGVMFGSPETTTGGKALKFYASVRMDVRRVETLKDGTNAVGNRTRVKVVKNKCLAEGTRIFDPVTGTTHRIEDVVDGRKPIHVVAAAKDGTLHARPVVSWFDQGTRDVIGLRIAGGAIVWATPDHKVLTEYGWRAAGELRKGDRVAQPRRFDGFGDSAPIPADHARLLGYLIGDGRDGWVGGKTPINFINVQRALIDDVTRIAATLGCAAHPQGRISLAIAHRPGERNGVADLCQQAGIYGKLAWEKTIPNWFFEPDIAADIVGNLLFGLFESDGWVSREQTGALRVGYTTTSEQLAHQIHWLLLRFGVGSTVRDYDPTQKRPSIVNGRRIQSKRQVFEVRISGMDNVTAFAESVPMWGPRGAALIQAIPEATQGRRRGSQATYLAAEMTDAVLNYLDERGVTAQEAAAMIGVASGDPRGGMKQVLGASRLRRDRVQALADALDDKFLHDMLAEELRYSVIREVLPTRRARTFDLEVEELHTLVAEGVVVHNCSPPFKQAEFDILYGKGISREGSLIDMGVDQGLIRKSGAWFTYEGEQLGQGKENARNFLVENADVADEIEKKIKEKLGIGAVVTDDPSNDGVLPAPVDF
# [5] = target: T3, Heat shock factor protein 1 (Mus musculus, UniProt P38532); experiment: enhancement of HSF1-driven luciferase signal – cell-based, NIH3T3, luminescence, dose retest, confirmation (AID 435004); format: functional;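 further: stress induced by proteasome inhibitor MG132 added 30 min after compound; luciferase reporter driven by HSF1 response element in NIH3T3 cells; actives raise luminescence as potentiators of the MG132 stress response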
# T3 sequence (P38532 whole entry): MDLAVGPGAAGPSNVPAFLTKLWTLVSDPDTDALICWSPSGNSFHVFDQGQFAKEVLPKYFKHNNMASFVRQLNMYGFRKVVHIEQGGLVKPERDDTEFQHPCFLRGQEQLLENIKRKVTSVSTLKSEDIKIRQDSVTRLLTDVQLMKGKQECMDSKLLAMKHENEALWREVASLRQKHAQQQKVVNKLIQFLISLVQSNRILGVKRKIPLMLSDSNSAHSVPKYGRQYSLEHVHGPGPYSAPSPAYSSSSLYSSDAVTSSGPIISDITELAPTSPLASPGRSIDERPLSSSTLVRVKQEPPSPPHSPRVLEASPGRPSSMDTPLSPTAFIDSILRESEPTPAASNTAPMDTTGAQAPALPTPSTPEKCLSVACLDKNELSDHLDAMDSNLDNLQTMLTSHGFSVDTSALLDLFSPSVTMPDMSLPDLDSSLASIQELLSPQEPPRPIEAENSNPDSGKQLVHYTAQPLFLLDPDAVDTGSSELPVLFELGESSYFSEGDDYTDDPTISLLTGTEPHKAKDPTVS
# [6] = Luminescence Cell-Based Dose Response HTS to Identify Activators of Luciferase Translation or Activity in H4 […] Cells. [Related pubchem assays: 1829 (Project Summary), 1814 (Primary HTS)]; format: functional
# [7] = tested on: H4; experiment: Luminescence Cell-Based Dose Response HTS to Identify Activators of 5'UTR Stem-Loop Driven Prion Protein mRNA Translation in H4 Neuroglioblastoma Cells. [Related pubchem assays: 1829 (Project Summary), 1814 (Primary HTS)]; format: functional; settings: Homo sapiens
# [8] = target: Cytochrome P450 2C9 (Homo sapiens, UniProt P11712)
# [9] = tested on: Streptococcus; experiment: GAS UMAA2166 growth inhibition – luminescence, BacTiterGlo, counter-screen for streptokinase expression inhibitor project, dose response (AID 1915); format: functional, organism-based;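 further: potency for reduction of bacterial viability or growth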
# [10] = tested on: Streptococcus sp. 'group A'; experiment: Streptococcus pyogenes SK(-)GAS viability under kanamycin – luminescence, BacTiterGlo, confirmation, counter-screen for streptokinase expression inhibitor project, dose response (AID 1900); format: functional, organism-based
# [11] = alpha-synuclein stem-loop luciferase translation blockers – H4 neuroglioma cells, luminescence, confirmation (AID 1988); format: functional, cell-based
# [12] = target: T4, Streptokinase A (Streptococcus pyogenes serotype M1, UniProt P10520); experiment: viability-normalized secreted streptokinase activity reduction – plasminogen activation absorbance, OD405, dose response (AID 1914); format: functional, Streptococcus pyogenes M1 GAS;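 further: secreted streptokinase activity via plasminogen activation per viability signal from cell pellet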
# T4 sequence (P10520 whole entry): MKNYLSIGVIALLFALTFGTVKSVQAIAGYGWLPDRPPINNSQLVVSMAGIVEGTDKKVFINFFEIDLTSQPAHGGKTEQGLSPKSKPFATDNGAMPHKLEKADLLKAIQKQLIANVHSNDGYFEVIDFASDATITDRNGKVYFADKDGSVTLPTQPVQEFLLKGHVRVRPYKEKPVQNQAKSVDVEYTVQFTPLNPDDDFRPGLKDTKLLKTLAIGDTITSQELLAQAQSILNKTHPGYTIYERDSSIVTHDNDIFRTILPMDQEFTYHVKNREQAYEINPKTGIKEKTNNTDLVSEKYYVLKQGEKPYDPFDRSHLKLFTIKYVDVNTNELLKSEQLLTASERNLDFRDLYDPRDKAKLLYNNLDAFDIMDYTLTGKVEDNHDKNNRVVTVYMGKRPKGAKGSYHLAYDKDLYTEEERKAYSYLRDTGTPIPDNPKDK
# [13] = NIH-3T3 fibroblast cytotoxicity, dose response, cytotoxicity control, cell-based, fluorescence, Alamar Blue, secondary assay (AID 2327); format: functional;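 further: NIH-3T3 mouse fibroblasts cultured with fluconazole at 8 µg/mL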
# [14] = tested on: INS1; experiment: INS-1E survival protection against cytokine death – cell-based, luminescence, retest, dose response (AID 449756); format: functional; settings: Rattus norvegicus;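 further: cell death triggered by IL-1 beta plus TNF-alpha plus IFN-gamma mixture; protective hits raise ATP signal compared with cytokine alone wells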
# Cytochrome P450 2C9, sequence (P11712 whole entry): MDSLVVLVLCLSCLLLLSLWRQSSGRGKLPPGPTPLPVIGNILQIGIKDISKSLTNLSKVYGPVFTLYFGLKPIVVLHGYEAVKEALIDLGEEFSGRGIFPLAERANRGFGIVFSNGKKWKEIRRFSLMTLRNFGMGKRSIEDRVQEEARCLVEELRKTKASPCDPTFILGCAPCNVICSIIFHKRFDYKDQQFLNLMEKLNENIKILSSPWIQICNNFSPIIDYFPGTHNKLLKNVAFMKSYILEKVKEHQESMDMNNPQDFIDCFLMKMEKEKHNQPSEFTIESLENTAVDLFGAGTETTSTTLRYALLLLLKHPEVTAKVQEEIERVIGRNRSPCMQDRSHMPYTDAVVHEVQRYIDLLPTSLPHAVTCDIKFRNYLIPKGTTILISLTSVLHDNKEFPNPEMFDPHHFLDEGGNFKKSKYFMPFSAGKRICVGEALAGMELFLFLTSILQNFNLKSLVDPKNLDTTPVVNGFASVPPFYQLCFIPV
# Cytochrome P450 2C19, sequence (P33261 whole entry): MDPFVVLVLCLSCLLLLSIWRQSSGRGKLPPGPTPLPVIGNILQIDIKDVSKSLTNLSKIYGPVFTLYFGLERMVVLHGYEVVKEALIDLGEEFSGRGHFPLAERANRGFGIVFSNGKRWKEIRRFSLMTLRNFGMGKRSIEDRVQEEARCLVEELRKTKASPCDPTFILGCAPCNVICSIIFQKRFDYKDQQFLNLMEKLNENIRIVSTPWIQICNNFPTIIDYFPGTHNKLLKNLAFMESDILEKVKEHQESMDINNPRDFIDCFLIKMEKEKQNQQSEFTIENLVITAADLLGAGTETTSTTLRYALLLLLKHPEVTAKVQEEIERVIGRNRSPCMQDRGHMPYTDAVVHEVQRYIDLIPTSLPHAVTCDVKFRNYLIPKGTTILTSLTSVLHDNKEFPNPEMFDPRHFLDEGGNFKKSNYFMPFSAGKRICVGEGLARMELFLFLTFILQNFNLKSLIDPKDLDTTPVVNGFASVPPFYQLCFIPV
structure (smiles),measurement,setting,value
CCN(CC)S(=O)(=O)c1cccc(C(=O)N/N=C/c2cccc(O)c2O)c1,AC50,[1],8.97 µM (active)
CC(=O)NC1=NN(c2ccccc2)C(=O)C1,AC50,[2],inconclusive
same,AC50,[3],33.5 µM (active)
same,EC50,[4],5.21 µM (active)
CC(C)c1ccc(C2NC(=O)c3ccccc3O2)cc1 (centres undefined),EC50,[5],21.2 µM (active)
COc1cccc(C=O)c1OCCCOc1cccc2cccnc12,EC50,[6],16.4 µM (active)
same,EC50,[7],28.1 µM (active)
O=C(CN1c2ccccc2S(=O)(=O)c2ccccc21)NCc1ccc(F)cc1,EC50,[5],> 260 µM (inactive)
NC(=O)CC(NC(=O)Cc1cccc2ccccc12)c1ccc(NC2CCCCCCC2)c([N+](=O)[O-])c1 (centres undefined),AC50,[1],14.1 µM (active)
Cn1c(N)c(C(=O)COC(=O)c2ccccc2C(=O)c2ccc(Cl)c([N+](=O)[O-])c2)c(=O)n(C)c1=O,AC50,[1],4.25 µM (active)
CNc1c(NS(=O)(=O)c2ccc(F)c(Cl)c2)c(=O)oc2ccccc12,EC50,[5],> 260 µM (inactive)
CN1CCN(Cc2c(O)ccc3cc(Br)ccc23)CC1,EC50,[5],11.2 µM (active)
O=C(/C(=C\c1ccccc1)c1nc2ccccc2[nH]1)c1ccc(Cl)cc1,AC50,[1],3.28 µM (active)
COc1ccc(NC(=O)COC(=O)/C=C/C(=O)OCC(=O)Nc2ccc(OC)c(Cl)c2)cc1Cl,EC50,[5],6.53 µM (active)
COc1ccc(C2N(C(=O)CN3CCCC3)CCCN2S(=O)(=O)c2ccccc2)cc1 (centres undefined),EC50,[5],> 260 µM (inactive)
CN1/C(=C\C(=O)Nc2ccc(Br)cc2)C(C)(C)c2ccccc21,AC50,[1],5.09 µM (active)
CCOC(=O)N1CCN(C(=O)CS(=O)(=O)c2cn(Cc3ccc(F)cc3)c3ccccc23)CC1,EC50,[5],> 260 µM (inactive)
COC(=O)Cn1c2ccc(OC)cc2c2nc(C)sc21,EC50,[5],> 260 µM (inactive)
O=C(Nc1cc(C(F)(F)F)ccc1N1CCCCC1)c1ccc(Br)o1,AC50,[1],4.94 µM (active)
same,AC50,[8],1.41 µM (inconclusive)
CC(C)=CCCC1(C)C=Cc2c(ccc3c2[nH]c2cc(O)c(C)cc23)O1 (centres undefined),AC50,[1],2.9 µM (active)
same,EC50,[9],6.72 µM (active)
same,EC50,[10],2.31 µM (active)
Cc1c(C(=O)N2CCOCC2)sc2nc(-c3ccccc3)cn12,EC50,[6],3.66 µM (active)
same,EC50,[7],28.8 µM (active)
Cc1cc(C)c(OCCCCN2CCNCC2)c(C)c1,AC50,[1],3.23 µM (active)
COc1ccc2cc(/C=N/NC(=O)c3ccc(CN(c4cccc(Cl)c4Cl)S(C)(=O)=O)cc3)c(Cl)nc2c1,AC50,[1],< 0.16 µM (active)
COc1cc(OC)cc(-c2nnc(SCC(=O)N(Cc3ccccc3)C(C)(C)C)o2)c1,AC50,[1],0.618 µM (active)
CC(O)CC(C(=O)NNc1ccccc1)C(=O)NNc1ccccc1 (centres undefined),AC50,[1],0.489 µM (active)
CC(C)COc1ccc2[nH]c3c(c2c1)CCCC3=O,EC50,[11],10.6 µM (active)
COc1ccc(-n2nc3c(N4CCC(C(=O)NCCc5ccccc5C)CC4)nnc(C)c3c2C)cc1,AC50,[1],4.03 µM (active)
COc1ccc(/C=N/NC(=O)c2cc(C34CC5CC(CC(C5)C3)C4)[nH]n2)cc1O,AC50,[1],1.16 µM (active)
O=c1cc(N2CCCCC2)c(-c2ccccc2)nn1Cc1ccc(Cl)cc1Cl,AC50,[1],1.65 µM (active)
same,EC50,[9],8.6 µM (active)
same,EC50,[10],3.19 µM (active)
same,EC50,[12],> 150 µM (not active)
Clc1ccc(-c2c[n+](Cc3ccc(Br)cc3)c3n2CCCCC3)cc1,EC50,[13],> 150 µM (inconclusive)
O=c1cc(-c2ccccc2)[nH]n1-c1nc2ccccc2s1,AC50,[1],2.45 µM (active)
same,EC50,[9],10.3 µM (active)
same,EC50,[10],2.43 µM (active)
same,EC50,[12],> 150 µM (not active)
COc1ccc(-c2sc3ccccc3c2-c2ccc(O)cc2)cc1,AC50,[1],3.35 µM (active)
CC[C@@H]1CC=C[C@H]2[C@H]1C(=O)N(Cc1ccccc1)[C@H]2c1ccc(OC)c(Cl)c1,AC50,[1],6.12 µM (active)
same,EC50,[9],16 µM (active)
same,EC50,[10],6.67 µM (active)
same,EC50,[12],4.05 µM (active)
COc1ccc(-c2cn(Cc3ccc(C(=O)c4ccccc4)cc3)nn2)cc1,AC50,[14],9.37 µM (active)
same,EC50,[6],90.4 µM (active)
same,EC50,[7],21.2 µM (active)
